Assay results taken from EPA's ToxRefDB 2.

Assays:
rabbit = conditions: Prenatal developmental toxicity study, new zealand white, Oral, Gavage/Intubation, dose end: 19 GD
rat [1] = conditions: Subchronic oral toxicity in rodents, sprague dawley, Feed, dose end: 90 day, group: systemic
dog = conditions: Subchronic oral toxicity in nonrodent, beagle, Feed, dose end: 90 day, group: systemic
rat [2] = conditions: Multigenerational reproductive toxicity study, other, Oral, Feed, dose end: 2 generation
rat [3] = conditions: Prenatal developmental toxicity study, sprague dawley, Oral, Gavage/Intubation, dose end: 16 GD
rat [4] = conditions: Prenatal developmental toxicity study, sprague dawley, Oral, Gavage/Intubation, dose end: 16 GD; remark: listed apart in the source
rat [5] = conditions: Prenatal developmental toxicity study, sprague dawley, Oral, Feed, dose end: 16 GD
rat [6] = conditions: Combined chronic toxicity/carcinogenicity, sprague dawley, Oral, Feed, dose end: 2 year, group: systemic
[7] = group: developmental, systemic / in life observation / body weight / fetal weight
[8] = group: maternal, reproductive / reproductive performance / aborted / aborted + reproductive / reproductive performance / resorptions / resorptions + systemic…
[9] = systemic / pathology microscopic / stomach / hyperplasia
[10] = group: offspring, developmental / offspring survival late / viability index / viability index
[11] = group: offspring, developmental / offspring survival late / viability index / viability index + systemic / in life observation / body weight / offspring (pup…
[12] = group: parental, systemic / pathology microscopic / liver / hypertrophy + systemic / in life observation / body weight / body weight + systemic / pathology …
[13] = group: parental, systemic / pathology microscopic / liver / hypertrophy + systemic / in life observation / mortality / mortality
[14] = group: reproductive, reproductive / reproductive performance / gestational length / gestational length
[15] = group: reproductive, reproductive / reproductive performance / gestational length / gestational length + reproductive / offspring survival early / litter size / …
[16] = group: developmental, developmental / developmental malformation / kidney / small renal papilla + developmental / developmental malformation / ureter / distended
[17] = group: developmental, developmental / developmental malformation / kidney / small renal papilla + developmental / developmental malformation / ureter / distended…
[18] = group: maternal, systemic / in life observation / body weight / body weight gain + systemic / in life observation / food consumption / food consumption + …
[19] = group: developmental, developmental / developmental malformation / kidney / absent renal papilla + developmental / developmental malformation / ureter / …
[20] = group: maternal, systemic / organ weight / liver / relative to body weight
[21] = group: maternal, systemic / organ weight / liver / relative to body weight + systemic / in life observation / body weight / body weight gain + systemic / in …
[22] = group: developmental, developmental / developmental malformation / bone / extra ossification site + developmental / developmental malformation / bone / incomplete…
[23] = group: maternal, reproductive / reproductive performance / resorptions / resorptions + systemic / in life observation / food consumption / food consumption…
[24] = systemic / organ weight / liver / relative to body weight + systemic / pathology microscopic / liver / hypertrophy
[25] = systemic / organ weight / liver / relative to body weight + systemic / pathology microscopic / liver / hypertrophy + systemic / clinical …

Q: Which results are given for C[Si](Cn1cncn1)(c1ccc(F)cc1)c1ccc(F)cc1 [Flusilazole]?
A: LEL (rabbit; [7]): 35 mg/kg/day; LOAEL (rabbit; [7]): 35 mg/kg/day; NEL (rabbit; [7]): 12 mg/kg/day; NOAEL (rabbit; [7]): 12 mg/kg/day; LEL (rabbit; [8]): 35 mg/kg/day; LOAEL (rabbit; [8]): 35 mg/kg/day; NEL (rabbit; [8]): 12 mg/kg/day; NOAEL (rabbit; [8]): 12 mg/kg/day; LOAEL (rat [1]; systemic / clinical chemistry / cholesterol / cholesterol + systemic / pathology microscopic / urinary bladder / hyperplasia): 27 mg/kg/day; NOAEL (rat [1]; systemic / clinical chemistry / cholesterol / cholesterol + systemic / pathology microscopic / urinary bladder / hyperplasia + systemic / …): 9 mg/kg/day; LEL (rat [1]; systemic / in life observation / body weight / body weight): 11 mg/kg/day; NEL (rat [1]; systemic / in life observation / body weight / body weight + systemic / clinical chemistry / cholesterol / cholesterol + systemic / organ …): 2 mg/kg/day; NOAEL (dog; systemic / organ weight / liver / absolute + systemic / organ weight / liver / relative to body weight + systemic / clinical chemistry / …): 0.9 mg/kg/day; LOAEL (dog; systemic / organ weight / liver / absolute + systemic / organ weight / liver / relative to body weight + systemic / pathology microscopic / …): 4.3 mg/kg/day; LEL (dog; [9]): 0.9 mg/kg/day; NEL (dog; [9]): < 0.9 mg/kg/day; NEL (rat [2]; [10]): 3.5 mg/kg/day; NOAEL (rat [2]; [10]): 3.5 mg/kg/day; LEL (rat [2]; [11]): 17.5 mg/kg/day; LOAEL (rat [2]; [11]): 17.5 mg/kg/day; LEL (rat [2]; [12]): 3.5 mg/kg/day; LOAEL (rat [2]; [12]): 3.5 mg/kg/day; NEL (rat [2]; [13]): 0.35 mg/kg/day; NOAEL (rat [2]; [13]): 0.35 mg/kg/day; NEL (rat [2]; [14]): 3.5 mg/kg/day; NOAEL (rat [2]; [14]): 3.5 mg/kg/day; LEL (rat [2]; [15]): 17.5 mg/kg/day; LOAEL (rat [2]; [15]): 17.5 mg/kg/day; LEL (rat [3]; [16]): 10 mg/kg/day; LOAEL (rat [3]; [16]): 10 mg/kg/day; NEL (rat [3]; [17]): 2 mg/kg/day; NOAEL (rat [3]; [17]): 2 mg/kg/day; LEL (rat [3]; [18]): 100 mg/kg/day; LOAEL (rat [3]; [18]): 100 mg/kg/day; NEL (rat [3]; [18]): 10 mg/kg/day; NOAEL (rat [3]; [18]): 10 mg/kg/day; LEL (rat [4]; [19]): 0.4 mg/kg/day; LOAEL (rat [4]; [19]): 0.4 mg/kg/day; NEL (rat [4]; [19]): < 0.4 mg/kg/day; NOAEL (rat [4]; [19]): < 0.4 mg/kg/day; LEL (rat [4]; [20]): 50 mg/kg/day; LOAEL (rat [4]; [20]): 50 mg/kg/day; NEL (rat [4]; [21]): 10 mg/kg/day; NOAEL (rat [4]; [21]): 10 mg/kg/day; LOAEL (rat [5]; [22]): 300 ppm; NEL (rat [5]; [22]): 50 ppm; NOAEL (rat [5]; [22]): 100 ppm; LEL (rat [5]; group: developmental, developmental / developmental malformation / bone / extra ossification site + developmental / developmental malformation / bone / unossified): 100 ppm; LOAEL (rat [5]; group: maternal, reproductive / reproductive performance / resorptions / resorptions + systemic / in life observation / food consumption / food consumption): 300 ppm; LEL (rat [5]; [23]): 300 ppm; NEL (rat [5]; [23]): 100 ppm; NOAEL (rat [5]; [23]): 100 ppm; LEL (rat [6]; [24]): 2.6 mg/kg/day; LOAEL (rat [6]; [24]): 2.6 mg/kg/day; NEL (rat [6]; [25]): 0.53 mg/kg/day; NOAEL (rat [6]; [25]): 0.53 mg/kg/day
